Experimental data taken from patent US11813306B2, “Cyclic tetramer compounds as proprotein convertase subtilisin/kexin type 9 (PCSK9) inhibitors for the treatment of metabolic disorders” (NOVARTIS AG, priority 2018, dated 2023).

Molecular target: human PCSK9 (Homo sapiens, UniProt Q8NBP7)
Experiment: PCSK9 ligand binding assay (TR-FRET): interference with binding of human PCSK9 to human LDLR
Settings: for IC50: Human PCSK9 Alexa Fluor 647 / Human LDLR extracellular domain-Europium Kryptate; for Max % inhibition: efficacy (Amax), 100% = 1 uM unlabeled human PCSK9, 0% = DMSO
Outline: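 Read-out was TR-FRET ratio (665 nm over 615 nm, 330 nm excitation) between Alexa Fluor 647-human PCSK9 (16 nM added) and Europium Kryptate-human LDLR ectodomain (4 nM added). Compound and PCSK9 were mixed 30 min before LDLR, then incubated 2 h. Inhibition was normalised to DMSO and unlabelled-PCSK9 controls, giving IC50 and Amax.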

human PCSK9, sequence (Q8NBP7 153-692): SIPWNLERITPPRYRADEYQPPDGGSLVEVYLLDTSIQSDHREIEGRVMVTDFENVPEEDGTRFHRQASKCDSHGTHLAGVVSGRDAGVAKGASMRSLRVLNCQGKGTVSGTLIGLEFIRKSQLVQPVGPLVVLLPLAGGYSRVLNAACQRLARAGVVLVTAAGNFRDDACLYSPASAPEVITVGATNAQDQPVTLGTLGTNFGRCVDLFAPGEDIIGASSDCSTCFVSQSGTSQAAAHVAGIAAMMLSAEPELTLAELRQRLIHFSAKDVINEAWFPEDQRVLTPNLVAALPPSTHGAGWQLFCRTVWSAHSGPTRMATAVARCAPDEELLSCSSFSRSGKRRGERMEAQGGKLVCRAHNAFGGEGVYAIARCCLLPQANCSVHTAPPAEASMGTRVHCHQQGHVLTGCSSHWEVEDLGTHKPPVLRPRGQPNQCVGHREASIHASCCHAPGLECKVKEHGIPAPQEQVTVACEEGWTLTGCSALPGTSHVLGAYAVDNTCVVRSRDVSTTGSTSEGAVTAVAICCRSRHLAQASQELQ
human PCSK9, sequence (Q8NBP7 31-152 partner limits assumed): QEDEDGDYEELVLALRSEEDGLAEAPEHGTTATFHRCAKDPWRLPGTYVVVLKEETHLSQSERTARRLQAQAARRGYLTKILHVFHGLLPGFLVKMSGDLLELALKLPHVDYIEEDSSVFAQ

IC50	Max % inhibition	Structure (SMILES)
31.3 nM	94.0%	CCc1ccc(CN2C(=O)C[C@@H]([C@@H]3CCc4ccccc43)C(=O)N(C)C[C@@H](Cc3ccc(Cl)cc3)N(C)C(=O)[C@H](CO)NC(=O)[C@@H]2C)c(Oc2ccc(-c3cnc(CN(C)C)n3C)cc2)c1 [Compound 119, (2S,5S,8R,12S)-8-(4-Chlorobenzyl)-12-((S)-2,3-dihydro-1H-inden-1-yl)-1-(2-(4-(2-((dimethylamino)methyl)-1-methyl-1H-imidazol-5-yl)phenoxy)-4-ethylbenzyl)-5-(hydroxymethyl)-2,7,10-trimethyl-1,4,7,10-tetraazacyclotetradecane-3,6,11,14-tetraone]
0.596 nM	108.3%	C[C@H]1C(=O)N[C@@H](CO)C(=O)N[C@@]2(Cc3ccc(Cl)cc3)CCCN(C2)C(=O)[C@H](CC2CC2)CC(=O)N1Cc1ccc(Cl)cc1Oc1ccc(-c2cnc(CN(C)C)n2C)cc1 [Compound 42, (3R, 7S, 10S, 13R)-6-(4-chloro-2-(4-(2-((dimethylamino)methyl)-1-methyl-1H-imidazol-5-yl)phenoxy)benzyl)-13-(4-chlorobenzyl)-3-(cyclopropylmethyl)-10-(hydroxymethyl)-7-methyl-1,6,9,12-tetraazabicyclo[11.3.1]heptadecone-2,5,8,11-tetraone]
0.9 nM	109.6%	C[C@H]1C(=O)N[C@@H](CO)C(=O)N(C)[C@@]2(Cc3ccc(Cl)cc3)CCCN(C2)C(=O)[C@H](C2CC(F)(F)C2)CC(=O)N1Cc1c(F)cc(Cl)cc1Oc1ccc(-c2cnc(CN(C)C)n2C)cc1 [Compound 164, (3S, 7S, 10S, 13R)-6-(4-chloro-2-(4-(2-((dimethylamino)methyl)-1-methyl-1H-imidazol-5-yl)phenoxy)-6-fluorobenzyl)-13-(4-chlorobenzyl)-3-(3,3-difluorocyclobutyl)-10-(hydroxymethyl)-7,12-dimethyl-1,6,9,12-tetraazabicyclo[11.3.1]heptadecane-2,5,8,11-tetraone]
0.367 nM	106.6%	C[C@H]1C(=O)N[C@@H](CO)C(=O)N[C@@]2(Cc3ccc(Cl)cc3)CCCN(C2)C(=O)[C@H](CC(F)F)NC(=O)N1Cc1ccc(Cl)cc1Oc1ccc(-c2cnc(CN(C)C)n2C)cc1.Cl [Compound 58, (3S, 7S, 10S, 13R)-6-(4-chloro-2-(4-(2-((dimethylamino)methyl)-1-methyl-1H-imidazol-5-yl)phenoxy)benzyl)-13-(4-chlorobenzyl)-3-(2,2-difluoroethyl)-10-(hydroxymethyl)-7-methyl-1,4,6,9,12-pentaazabicyclo[11.3.1]heptadecane-2,5,8,11-tetraone]
1.78 nM	112.3%	COC[C@@H]1NC(=O)[C@H](C)N(Cc2c(F)cc(Cl)cc2Oc2ccc(-c3cnc(CN(C)C(C)(C)C)n3C)cc2)C(=O)C[C@@H](CC(F)(F)F)C(=O)N2CCC[C@@](Cc3ccc(Cl)cc3)(C2)N(C)C1=O [Compound 141, (3S, 7S, 10S, 13R)-6-(2-(4-(2-((tert-butyl(methyl)amino)methyl)-1-methyl-1H-imidazol-5-yl)phenoxy)-4-chloro-6-fluorobenzyl)-13-(4-chlorobenzyl)-10-(methoxymethyl)-7,12-dimethyl-3-(2,2,2-trifluoroethyl)-1,6,9,12-tetraazabicyclo[11.3.1]heptadecane-2,5,8,11-tetraone]
1.09 nM	111.9%	C[C@H]1C(=O)N[C@@H](CO)C(=O)N[C@@]2(Cc3ccc(Cl)cc3)CCCN(C2)C(=O)[C@H](CC2CC2)CC(=O)N1Cc1ccc(Cl)cc1Oc1ccc(-c2cnc(CNC(C)(C)C)n2C)cc1 [Compound 148, (3R, 7S, 10S, 13R)-6-(2-(4-(2-((tert-butylamino)methyl)-1-methyl-1H-imidazol-5-yl)phenoxy)-4-chlorobenzyl)-13-(4-chlorobenzyl)-3-(cyclopropylmethyl)-10-(hydroxymethyl)-7-methyl-1,6,9,12-tetraazabicyclo[11.3.1]heptadecane-2,5,8,11-tetraone]
0.47 nM	107.0%	COC[C@@H]1NC(=O)[C@H](C)N(Cc2ccc(Cl)cc2Oc2ccc(-c3cnc(CN(C)C)n3C)cc2)C(=O)C[C@@H](Cc2ccccn2)C(=O)N2CCC[C@@](Cc3ccc(Cl)cc3)(C2)NC1=O [Compound 21, (3R,7S,10S,13R)-6-(4-Chloro-2-(4-(2-((dimethylamino)methyl)-1-methyl-1H-imidazol-5-yl)phenoxy)benzyl)-13-(4-chlorobenzyl)-10-(methoxymethyl)-7-methyl-3-(pyridin-2-ylmethyl)-1,6,9,12-tetraazabicyclo[11.3.1]heptadecane-2,5,8,11-tetraone]
0.562 nM	103.2%	C[C@H]1C(=O)N[C@@H](CO)C(=O)N[C@@]2(Cc3ccc(Cl)cc3)CCCN(C2)C(=O)[C@H](Cc2ccccn2)CC(=O)N1Cc1ccc(Cl)cc1Oc1ccc(-c2cnc(CN3CCCC3)n2C)cc1 [Compound 1, (3R,7S,10S,13R)-6-(4-Chloro-2-(4-(1-methyl-2-(pyrrolidin-1-ylmethyl)-1H-imidazol-5-yl)phenoxy)benzyl)-13-(4-chlorobenzyl)-10-(hydroxymethyl)-7-methyl-3-(pyridin-2-ylmethyl)-1,6,9,12-tetraazabicyclo[11.3.1]heptadecane-2,5,8,11-tetraone]
490 nM	93.6%	COC[C@@H]1NC(=O)[C@H](C)N(Cc2ccc(Cl)cc2Oc2ccc(-c3cnc(CN4CCCC4)n3C)cc2)C(=O)C[C@@H](N(C)C)C(=O)N(C)C[C@@H](Cc2ccc(Cl)cc2)N(C)C1=O.Cl [Compound 134, (2S, 5S, 8R, 12R)-1-(4-chloro-2-(4-(1-methyl-2-(pyrrolidin-1-ylmethyl)-1H-imidazol-5-yl)phenoxy)benzyl)-8-(4-chlorobenzyl)-12-(dimethylamino)-5-(methoxymethyl)-2,7,10-trimethyl-1,4,7,10-tetraazacyclotetradecane-3,6,11,14-tetraone]
0.978 nM	107.7%	COC[C@@H]1NC(=O)[C@H](C)N(Cc2ccc(Cl)cc2Oc2ccc(-c3cnc(CN(C)C)n3C)nc2)C(=O)C[C@@H](Cc2ccccn2)C(=O)N2CCC[C@@](Cc3ccc(Cl)cc3)(C2)N(C)C1=O [Compound 94, (3R,7S,10S,13R)-6-(4-Chloro-2-((6-(2-((dimethylamino)methyl)-1-methyl-1H-imidazol-5-yl)pyridin-3-yl)oxy)benzyl)-13-(4-chlorobenzyl)-10-(methoxymethyl)-7,12-dimethyl-3-(pyridin-2-ylmethyl)-1,6,9,12-tetraazabicyclo[11.3.1]heptadecane-2,5,8,11-tetraone]
59.6 nM	95.2%	CCc1ccc(CN2C(=O)C[C@@H]([C@@H]3CCc4ccccc43)C(=O)N(C)C[C@H](Cc3ccc(Cl)cc3)N(C)C(=O)[C@H](CO)NC(=O)[C@@H]2C)c(Oc2ccc(-c3cnc(CN(C)C)n3C)cc2)c1 [Compound 118, (2S, 5S, 8S, 12S)-8-(4-chlorobenzyl)-12-((S)-2,3-dihydro-1H-inden-1-yl)-1-(2-(4-(2-((dimethylamino)methyl)-1-methyl-1H-imidazol-5-yl)phenoxy)-4-ethylbenzyl)-5-(hydroxymethyl)-2,7,10-trimethyl-1,4,7,10-tetraazacyclotetradecane-3,6,11,14-tetraone]
21.4 nM	95.9%	COC[C@@H]1NC(=O)[C@H](C)N(Cc2ccc(Cl)cc2Oc2ccc(-c3cnc(CN4CCCC4)n3C)cc2)C(=O)C[C@@H](Cc2ccccc2)C(=O)N(C)C[C@@H](Cc2ccc(Cl)cc2)N(C)C1=O.Cl [Compound 114, (2S, 5S, 8R, 12R)-12-benzyl-1-(4-chloro-2-(4-(1-methyl-2-(pyrrolidin-1-ylmethyl)-1H-imidazol-5-yl)phenoxy)benzyl)-8-(4-chlorobenzyl)-5-(methoxymethyl)-2,7,10-trimethyl-1,4,7,10-tetraazacyclotetradecane-3,6,11,14-tetraone]
1.45 nM	109.6%	COC[C@@H]1NC(=O)[C@H](C)N(Cc2c(F)cc(Cl)cc2Oc2ccc(-c3cnc(CN(C)C)n3C)cc2)C(=O)C[C@@H](C2CCC2)C(=O)N2CCC[C@@](Cc3ccc(Cl)cc3)(C2)N(C)C1=O [Compound 140, (3S, 7S, 10S, 13R)-6-(4-chloro-2-(4-(2-((dimethylamino)methyl)-1-methyl-1H-imidazol-5-yl)phenoxy)-6-fluorobenzyl)-13-(4-chlorobenzyl)-3-cyclobutyl-10-(methoxymethyl)-7,12-dimethyl-1,6,9,12-tetraazabicyclo[11.3.1]heptadecane-2,5,8,11-tetraone]
1.83 nM	104.8%	C[C@H]1C(=O)N[C@@H](CO)C(=O)N(C)[C@H](Cc2ccc(Cl)cc2)CN(C)C(=O)[C@H]([C@H]2CCc3ccccc32)CC(=O)N1Cc1ccc(Cl)cc1Oc1ccc(-c2cnc(CN(C)C)n2C)cc1.Cl [Compound 91, (2S, 5S, 8R, 12S)-1-(4-chloro-2-(4-(2-((dimethylamino)methyl)-1-methyl-1H-imidazol-5-yl)phenoxy)benzyl)-8-(4-chlorobenzyl)-12-((R)-2,3-dihydro-1H-inden-1-yl)-5-(hydroxymethyl)-2,7,10-trimethyl-1,4,7,10-tetraazacyclotetradecane-3,6,11,14-tetraone]
1.1 nM	98.3%	C[C@H]1C(=O)N[C@@H](CO)C(=O)N[C@@]2(Cc3ccc(Cl)cc3)CCCN(C2)C(=O)[C@H]([C@H]2CCc3ccccc32)CC(=O)N1Cc1ccc(Cl)cc1Oc1ccc(-c2cnc(CN(C)C)n2C)cn1 [Compound 31, (3S, 7S, 10S, 13R)-6-(4-chloro-2-((5-(2-((dimethylamino)methyl)-1-methyl-1H-imidazol-5-yl)pyridin-2-yl)oxy)benzyl)-13-(4-chlorobenzyl)-3-((R)-2,3-dihydro-1H-inden-1-yl)-10-(hydroxymethyl)-7-methyl-1,6,9,12-tetraazabicyclo[11.3.1]heptadecane-2,5,8,11-tetraone]
